# Measured values: US20060234987A1, “Neuroprotective benzo 1 3 oxathiol 2 ones” (priority 2003, published 2006)
# Key:
# SCG neurons [1] = assay: Protection of SCG neurons from anti-NGF killing; type: cell-based, Sprague Dawley rats; conditions: Rattus norvegicus, Neuron, read-out: IC50, rescue from anti-NGF killing of cultured SCG neurons
# Procedure: Neurotrophins are critical to the growth, development, and survival of small fiber neurons of the PNS. SCG neurons are neurons of the PNS that undergo apoptosis upon NGF withdrawal. In a typical experiment SCG neurons are cultured in the presence of NGF, which induces survival and neurite out-growth. After 5 days the NGF is removed by either the addition of anti-NGF polyclonal antibody (Sigma) or by repeated washings (4 times) with NGF free media, resulting in the apoptosis of up to 90% of the neurons after 48 hours, as measured by MTS staining. The addition of selected compounds of Formula I to the final cellular media provides upwards of 100% protection, at drug concentrations ranging from 10 to 50 μM (see Example 62).
# Protection of SCG neurons from anti-NGF killing. SCG neurons were isolated from day 1 neonatal Sprague Dawley rats, plated at a cell density of 5,000 cells/well, and incubated in Biowhittaker Ultraculture containing 1% Penstrep, 1% L-glutamine, 0.7% ARAC, 3% rat serum, and NGF (50 ng/mL, Calomone Labs), at 37° C., under a 5% CO2 atmosphere. After 4 days the cells were treated with anti-NGF antibody (Sigma). At this time compound was added and the cells were maintained serum and NGF free for 48 hours, at which time viability of the neurons was assessed using Alamar Blue (Medicorp) staining. Table 3 summarizes selected IC50 values from compounds tested using this protocol.
# SCG neurons [2] = assay: In vitro protection of SCG neurons from Taxol killing; type: cell-based, Sprague Dawley rats; conditions: Rattus norvegicus, Neuron; Taxol 50 ng/mL, 48 hours, MTS viability; read-out: IC50, rescue from Taxol killing of SCG neurons
# Source text: Taxol™ is regularly used in the treatment of breast and other cancers. Taxol™ binds to the cyto-skeletal protein tubulin, thereby inhibiting normal microtubular […] and inducing cellular apoptosis. Despite its potency as an anti-tumour agent, Taxol™ is also toxic to neurons, inducing dose limiting peripheral neuropathies. The addition of Taxol™ to cultured SCG neurons induces the degradation or loss of upwards of 80% of the neurons. The addition of selected compounds of Formula I to the cellular media, concurrently with Taxol™, protects upwards of 100% of the neurons, at drug concentrations ranging from 3 to 50 μM (see Example 63).
# In Vitro Protection of SCG neurons from Taxol killing. SCG neurons were isolated from day 1 neonatal Sprague Dawley rats, plated at a cell density of 10,000 cells/well, and incubated in Biowhittaker Ultraculture containing 1% Penstrep, 1% L-glutamine, 0.7% ARAC, 3% rat serum, and NGF (50 ng/mL, Calomone Labs) at 37° C., under a 5% CO2 atmosphere. After 5 days the cells were treated with compound and Taxol™ (50 ng/mL). Viability of neurons was assessed 48 hours later using MTS (Promega) staining. Table 4 summarizes selected IC50 values from compounds tested using this protocol. Also, see FIG. 1 for compound protection against Taxol killing.
# [3] = Conversion of esters and carbamates to phenol in microsomal fractions; type: in vitro ADME; conditions: incubated with microsomal fractions, standard conditions
# Procedure: The phenolic moiety observed in many of the compounds represented by Formula I may be converted to esters, carbamates, thiocarbamates and sulfonates. The Applicant has shown that both esters and carbamates are rapidly converted to the corresponding phenol when incubated in the presence of microsomal fractions using standard conditions (Cresteil, T., et al. Am. Soc. Pharm. Exper. Therapeutics, 2002, 30, 438-445). These microsomal fractions contain various active esterase and P450 oxidative enzymes. […] Esters and carbamates of this type allow for the preparation of various novel pro-drugs which display increased water solubility, stability, formulation, and pharmacokinetic profiles. The carbamates disclosed in U.S. Pat. No. 4,349,685 are limited to lower alkyl, substituted aryl, haloalkyl, carbalkoxyalkene or an alkyl carbonyloxyalkylene group. The preferred embodiments of this disclosure include esters and carbamates represented by Formula I, where the carbamate or ester moiety includes substituted lower alkyl, heteroaryl, substituted heteroaryl moieties which contain a basic nitrogen, capable of increasing the water solubility of said compound via an acid/base salt (typified by compounds 55 and 61).
# [4] = anti-NGF antibody, 48 hours, Alamar Blue viability
SMILES,IC50 (SCG neurons [1]; [4]),IC50 (SCG neurons [2]),conversion to parent phenol in microsomal fractions [3],IC50 (SCG neurons [1]; 48 h)
"O=C(Oc1cc(-c2ccc(-c3ccccc3)cc2)c2oc(=O)sc2c1)c1cccnc1 [Compound 55, 5-(3-pyridylcarbonyloxy)-7-biphenylbenzo[1,3]oxathiol-2-one]",7 µM,2 µM,rapidly converted to their parent phenols,–
"O=c1oc2ccc(O)cc2s1 [Compound 1, 5-Hydroxybenzo[1,3]oxathiol-2-one]",–,25 µM,–,–
"O=c1oc2c(Sc3cccc4ccccc34)cc(O)cc2s1 [Compound 22, 5-Hydroxy-7-((1-naphthyl)sulfanyl)benzo[1,3]oxathiol-2-one]",> 30 µM,10 µM,–,–
"COc1ccc(NC(=O)Oc2cc(Sc3ccc4ccccc4c3)c3oc(=O)sc3c2)cc1 [Compound 26, 5-(N-(4-methoxyphenyl)carbamoyloxy)-7-((2-naphthyl)sulfanyl)benzo[1,3]oxathiol-2-one]",–,7 µM,–,16 µM
"O=c1oc2c(Cl)cc(O)c(Cl)c2s1 [Compound 3, 4,7-Dichloro-5-hydroxybenzo[1,3]oxathiol-2-one]",–,10 µM,–,–
